# Patent publication US10098901B2, “Derivatives of oxazaphosphorines and therapeutic uses thereof” (INSTITUT GUSTAVE ROUSSY, priority 2014, dated 2018)
# Like-named read-outs stand apart in the source and are kept apart here.
# Experiments:
# [1] = test system: RMS-1 cell line; assay: cells; conditions: for IC50: read-out: In vitro Activity (IC50) RMS-1
# Protocol: (§1) The experiments were conducted in the absence of cytochrome.
# (§2) The cells were seeded in 96-well plates at optimal cell density determined previously and incubated with 100 μL of DMEM or RPMI containing 10% of FBS and 100 U/mL penicillin and 100 μg/mL streptomycin at 37° C., 5% CO2 in moist atmosphere. After 24 h, the cells were treated with 100 μL of the different pre-activated prodrugs at different concentrations:
# (§3) Depending on the cell line, 2 to 5 h incubation are needed to obtain the optimum optical density which was measured at 490 nm wavelength using a microplate reader (EL808, Biotek Instrument). Untreated cells were used as control. Each compound concentration was tested in six replicates.
# [2] = test system: A673 (human Ewing Sarcoma cell line); assay: cells; conditions: for IC50: Homo sapiens, read-out: In vitro Activity (IC50) A673
# Protocol: as §1, §2, §3
# [3] = Physico-chemical characterisation of nano-assemblies (DLS, Zeta potential, drug loading); assay type: physicochemical; conditions: nanoprecipitation acetone/water, no surfactant
# Protocol: Nano-assemblies (NAs) from prodrugs Geranyloxy-IFO (3b) at a concentration of 2 mg/mL and 5 mg/ml, were prepared in a single step by nanoprecipitation of solution (8 mg/mL in acetone) in milliQ® water (ratio acetone:water 1:4; v:v). Formation of NAs occurred immediately without the use of any surfactant. The organic solvent was then evaporated at room temperature under vacuum using a Rotavapor® and the organic solvent-free colloidal dispersions were stored at 4° C.
# The hydrodynamic diameter of the NAs was measured at 20° C. by Dynamic Light scattering using a Nanosizer ZS (Malvern Instrument Ltd, France). An amount of 20 μL of the suspension was diluted in 980 μL of Milli-Q water. The results give the mean hydrodynamic diameter of the dispersed NAs from three independent series of ten measurements. The standard deviation and the polydispersity index were also given.
# The Zeta (ξ) potential was also determined by dilution of 20 μL of the suspension in 980 μL of a […] solution using a Nanosizer ZS (Malvern Instrument Ltd, France).
# [4] = test system: human rhabdomyosarcoma (RD cell line) xenografted in nude mice; assay: Anti-tumor effect in vivo, RD xenograft; conditions: intravenous
# Protocol: In vivo cytotoxic efficacy was evaluated first on a model of human rhabdomyosarcoma xenografted in nude mice. The model used is RD cell line. The cells were first amplified in culture and counted. Cells were injected subcutaneously in both flanks of each mouse.
# The administration was performed by intravenous route at day 0.
# [5] = In vitro release of 4-HO-IFO in mouse plasma; assay type: in vitro ADME; conditions: 37° C., without activation by cytochromes
# [6] = squalenoyl IFO derivatives described in WO2012/076824; cited from earlier work
# [7] = test system: A673 (human Ewing Sarcoma cell line); conditions: comparison values for squalenoyl derivatives (WO2012/076824); cited from earlier work
# [8] = test system: RMS-1 cell line; conditions: comparison values for squalenoyl derivatives (WO2012/076824); cited from earlier work
# [9] = RMS-1, 72 h, absence of cytochrome
# [10] = A673, 72 h, absence of cytochrome
smiles,measurement,setting,value
"CC(C)CCCC(C)CCO (stereo not drawn) [3,7-dimethyloctanol]","cytotoxicity, in words",[1],The same results were observed
same,IC50,"[1]; RMS1, 72 h",> 50 µM
same,"cytotoxicity, in words",[2],The same results were observed
same,IC50,"[2]; A673, 72 h",> 200 µM
"CC(C)CCCC(C)CCOC1CCOP(=O)(NCCCl)N1CCCl (stereo not drawn) [13,17-Dimethyloctyloxy-IFO (3c), 13,17-Dimethyloctyloxy-IFO]",formation of nanoparticles (self-assembly),[3],did not provide any suspension of nanoparticles
same,IC50,"[1]; RMS1, 72 h",> 50 µM
same,IC50,"[1]; RMS1, 96 h",11.3 ± 5.8 µM
same,"cytotoxicity, in words",[1]; [9],did not exhibit significant cytotoxicity
same,"cytotoxicity, in words",[2]; [10],did not exhibit significant cytotoxicity
same,IC50,"[2]; A673, 72 h",> 200 µM
same,IC50,"[2]; A673, 96 h",24.5 ± 2.1 µM
"CC(C)=CCC/C(C)=C/CO [Geraniol, (trans)-3,7-dimethyl-2,6-octadien-1-ol]",tumor volume growth (Vtjx/Vtj0),"[4]; single dose 59 mg/kg, day 0",No tumor growth inhibition
same,"cytotoxicity, in words",[1],The same results were observed
same,IC50,"[1]; RMS1, 72 h",> 50 µM
same,"cytotoxicity, in words",[2],The same results were observed
same,IC50,"[2]; A673, 72 h",> 200 µM
"CC(C)=CCC/C(C)=C/COC1CCOP(=O)(NCCCl)N1CCCl (stereo not drawn) [Geranyloxy-IFO (bulk) (3b), Geranyloxy-IFO]","release of 4-HO-IFO, in words",[5],released
same,formation of nanoparticles (self-assembly),[3]; listed as Geranyloxy-IFO,gave satisfactory NAs
same,formation of nanoparticles (self-assembly),[3]; listed as geranyloxy-IFO,able to self-organize into nanoparticles
same,tumor volume growth (Vtjx/Vtj0),"[4]; single dose 158 mg/kg (equivalent to 100 mg/kg of IFO), day 0, free form, listed as Geranyloxy-IFO",showed antitumor activity
same,tumor volume growth (Vtjx/Vtj0),"[4]; single dose 158 mg/kg (equivalent to 100 mg/kg of IFO), day 0, free form, listed as geranyloxy-IFO",prevent the tumor growth
same,IC50,"[1]; RMS1, 72 h",9.3 ± 4.2 µM
same,"cytotoxicity, in words",[1]; [9],significant cytotoxicity
same,"cytotoxicity, in words",[2]; [10],significant cytotoxicity
same,IC50,"[2]; A673, 72 h",25.3 ± 1.5 µM
"O=P1(NCCCl)OCCCN1CCCl (stereo not drawn) [IFO, ifosfamide]",tumor volume growth (Vtjx/Vtj0),"[4]; single dose 300 mg/kg, day 0",antitumor activity
same,"cytotoxicity, in words",[1],did not exhibit significant cytotoxicity
same,IC50,"[1]; RMS1, 72 h",> 50 µM
same,"cytotoxicity, in words",[2],did not exhibit significant cytotoxicity
same,IC50,"[2]; A673, 72 h",> 200 µM
"CCCCCO [Pentanol, pentanol]","cytotoxicity, in words",[1],The same results were observed
same,IC50,"[1]; RMS1, 72 h",> 500 µM
same,"cytotoxicity, in words",[2],The same results were observed
same,IC50,"[2]; A673, 72 h",> 200 µM
"CCCCCOC1CCOP(=O)(NCCCl)N1CCCl (stereo not drawn) [Pentyloxy-IFO (3a), Pentyloxy-IFO]",formation of nanoparticles (self-assembly),[3],did not provide any suspension of nanoparticles
same,IC50,"[1]; RMS1, 72 h",5.3 ± 1.7 µM
same,IC50,"[2]; A673, 72 h",17.7 ± 2.3 µM
CC(C)=CCC/C(C)=C/CC/C(C)=C/CC/C=C(\C)CC/C=C(\C)CCCOC1CCOP(=O)(NCCCl)N1CCCl (stereo not drawn) [SQ-IFO],drug loading,[6],40.4%
same,mean diameter,[6],147 nm
same,IC50,[7],22 ± 5 µM
same,IC50,[8],11.4 ± 5 µM
CC(C)=CCC/C(C)=C/CC/C(C)=C/CC/C=C(\C)CC/C=C(\C)CCC(=O)NCCSC1CCOP(=O)(NCCCl)N1CCCl (stereo not drawn) [SQ-thio-IFO],drug loading,[6],36.3%
same,mean diameter,[6],170 nm
same,IC50,[7],23.2 ± 1.3 µM
same,IC50,[8],33 ± 1.8 µM
